Laboratory results: DBAASP
Converted amounts (≈) assume the structure as drawn.

What was measured:
Experiment in all cases: ≥ marks a high value that may be exact or a test limit, other limits are often not marked, values filed in µg/mL are converted to µM
Micrococcus luteus A270 = test system: Micrococcus luteus A270
Candida albicans MDM8 = test system: Candida albicans MDM8
[1] = test system: Serratia marcescens ATCC 4112
[2] = test system: Staphylococcus aureus ATCC 29213
[3] = test system: Staphylococcus epidermidis ATCC 12228
[4] = test system: Escherichia coli ATCC 25922
[5] = test system: Candida albicans ATCC 24433
[6] = test system: Candida albicans NCYC 1467
[7] = test system: Pseudomonas aeruginosa ATCC 27853
[8] = test system: Staphylococcus aureus NCTC 10788
[9] = test system: Escherichia coli NCTC 10418
[10] = test system: Bacillus subtilis ATCC 6051
[11] = test system: Acinetobacter baumannii ATCC 19606
[12] = test system: Klebsiella pneumoniae ATCC 700603
[13] = test system: Candida albicans ATCC 90028
Acinetobacter baumannii = test system: Acinetobacter baumannii
[14] = test system: Klebsiella pneumoniae ATCC 13883
Pseudomonas aeruginosa = test system: Pseudomonas aeruginosa
Klebsiella pneumoniae = test system: Klebsiella pneumoniae
[15] = test system: Staphylococcus aureus ATCC 43300
[16] = test system: Cryptococcus neoformans ATCC 208821
[17] = test system: Klebsiella pneumoniae ATCC BAA-2146
[18] = test system: Staphylococcus aureus USA 300 LAC
[19] = test system: Listeria monocytogenes ATCC 19115
Bacillus subtilis 168 HT = test system: Bacillus subtilis 168 HT
Escherichia coli MG1655 = test system: Escherichia coli MG1655
[20] = test system: Escherichia coli K12 MG1655
[21] = test system: Bacillus subtilis ATCC 6633
Proteus mirabilis = test system: Proteus mirabilis
[22] = test system: Staphylococcus epidermidis
[23] = test system: Micrococcus luteus ATCC 10240
[24] = test system: Stenotrophomonas maltophilia ATCC 13637
Streptococcus pyogenes = test system: Streptococcus pyogenes
[25] = test system: Candida albicans ATCC 90112
[26] = test system: Staphylococcus aureus ATCC 25923
[27] = test system: Pseudomonas aeruginosa PAO1
[28] = test system: Staphylococcus aureus USA 300

Q: `CC(C)C[C@H](NC(=O)[C@H](CO)NC(=O)[C@H](Cc1ccccc1)NC(=O)[C@@H]1CCCN1C(=O)[C@@H](N)CCC(N)=O)C(=O)N[C@@H](CCC(=O)O)C(=O)N[C@@H](CCCN=C(N)N)C(=O)N[C@@H](Cc1c[nH]c2ccccc12)C(=O)O` [QPFSLERW] was tested. Which MIC (Micrococcus luteus A270) did it give?
A: ≥ 94.5 µM

Q: And the MIC (Candida albicans MDM8)?
A: ≥ 189 µM

Q: And the MIC [1]?
A: ≥ 47.2 µM

Q: And the MIC [2]?
A: 189 µM (≈ 201 µg/mL)

Q: What about the MIC [3] of the same molecule?
A: 189 µM (≈ 201 µg/mL)

Q: With `CC[C@H](C)[C@H](NC(=O)CNC(=O)CNC(=O)[C@H](C)NC(=O)[C@@H](NC(=O)[C@H](CCCCN)NC(=O)[C@@H]1CCCN1C(=O)[C@@H](NC(=O)[C@H](CC(C)C)NC(=O)[C@H](CO)NC(=O)[C@H](CC(C)C)NC(=O)[C@@H](N)Cc1ccccc1)[C@@H](C)CC)[C@@H](C)CC)C(=O)N[C@@H](C)C(=O)N[C@@H](CO)C(=O)N[C@@H](CC(C)C)C(=O)N[C@H](C(=O)N[C@@H](CCCCN)C(=O)N[C@@H](CC(=O)O)C(=O)N[C@@H](CC(C)C)C(N)=O)C(C)C` [FLSLIPKIAGGIASLVKDL] as the molecule, how does the MIC [4] read?
A: 100 µM (≈ 195 µg/mL)

Q: And the MIC [5]?
A: ≥ 100 µM

Q: What about the MIC [3] of the same molecule?
A: 100 µM (≈ 195 µg/mL)

Q: Which MIC [6] does the source give for `CC(C)C[C@H](NC(=O)[C@H](CCCN=C(N)N)NC(=O)[C@H](CC(N)=O)NC(=O)[C@H](CC(C)C)NC(=O)[C@H](CCCCN)NC(=O)[C@H](CCCCN)NC(=O)[C@H](CC(C)C)NC(=O)[C@@H](NC(=O)[C@@H](N)CC(N)=O)C(C)C)C(=O)N[C@@H](CCCCN)C(=O)N[C@@H](CCC(=O)O)C(=O)N[C@@H](CCCCN)C(=O)N[C@@H](CC(N)=O)C(=O)N[C@@H](CCCCN)C(=O)N[C@@H](C)C(=O)N[C@@H](CCCCN)C(=O)N[C@@H](CC(N)=O)C(=O)N[C@@H](CO)C(=O)N[C@@H](CCCCN)C(=O)N[C@@H](CCC(=O)O)C(=O)N[C@@H](CC(N)=O)C(=O)N[C@@H](CC(N)=O)C(=O)O` [NVLKKLNRLKEKNKAKNSKENN] here?
A: ≥ 98 µM

Q: And the MIC [7]?
A: > 196 µM

Q: What about the MIC [8] of the same molecule?
A: ≥ 196 µM

Q: What about the MIC [9] of the same molecule?
A: ≥ 196 µM

Q: Which results are given for `CC[C@H](C)[C@@H]1NC(=O)CNC(=O)[C@H](CCCN=C(N)N)NC(=O)[C@H](Cc2ccc(O)cc2)NC(=O)[C@@H]2CSSC[C@H](NC1=O)C(=O)N[C@@H](Cc1ccc(O)cc1)C(=O)N[C@@H](C)C(=O)N[C@@H](CCCN=C(N)N)C(=O)N[C@H](C(=O)N[C@@H](CCCN=C(N)N)C(=O)O)CSSC[C@H](NC(=O)[C@H](Cc1c[nH]c3ccccc13)NC(=O)[C@@H](N)CCCCN)C(=O)N[C@@H](Cc1ccccc1)C(=O)N[C@@H](CCCN=C(N)N)C(=O)N[C@@H](C(C)C)C(=O)N2` [KWCFRVCYRGICYARCR]?
A: MIC [10]: 0.0572 µM (≈ 0.125 µg/mL); MIC [11]: 0.0572 µM (≈ 0.125 µg/mL); MIC [4]: 0.0572 µM (≈ 0.125 µg/mL); MIC [12]: 0.229 µM (≈ 0.499 µg/mL); MIC [13]: 3.66 µM (≈ 7.99 µg/mL); MIC (Acinetobacter baumannii): 0.0572 µM (≈ 0.125 µg/mL); MIC [14]: 0.0275 µM (≈ 0.0599 µg/mL); MIC (Pseudomonas aeruginosa): 0.115 µM (≈ 0.25 µg/mL); MIC (Klebsiella pneumoniae): 0.458 µM (≈ 0.998 µg/mL); MIC [7]: 0.0572 µM (≈ 0.125 µg/mL); MIC [15]: 0.229 µM (≈ 0.499 µg/mL); MIC [16]: 0.115 µM (≈ 0.25 µg/mL); MIC [17]: 0.115 µM (≈ 0.25 µg/mL)

Q: For `CC[C@H](C)[C@H](NC(=O)[C@@H](N)CCCCN)C(=O)N[C@@H](Cc1c[nH]c2ccccc12)C(=O)N[C@@H](Cc1c[nH]c2ccccc12)C(=O)N[C@@H](Cc1c[nH]c2ccccc12)C(=O)N[C@@H](Cc1c[nH]c2ccccc12)C(=O)N[C@@H](CC(C)C)C(=O)N[C@@H](CCCN=C(N)N)C(N)=O` [KIWWWWLR], which MIC [4] is on record?
A: 8.8 µM (≈ 11.2 µg/mL)

Q: And the MIC [18]?
A: 3.1 µM (≈ 3.94 µg/mL)

Q: And the MIC [14]?
A: 12.5 µM (≈ 15.9 µg/mL)

Q: How did the MIC [19] turn out when `CC(C)C[C@H](NC(=O)[C@H](Cc1ccccc1)NC(=O)[C@@H]1CCCN1C(=O)[C@@H]1CCCN1C(=O)[C@H](CC(N)=O)NC(=O)[C@@H](NC(=O)[C@@H](NC(=O)[C@@H]1CCCN1C(=O)[C@@H](N)[C@@H](C)O)C(C)C)C(C)C)C(=O)N[C@@H](CCC(N)=O)C(=O)N[C@@H](CCC(N)=O)C(=O)N[C@H](C(N)=O)[C@@H](C)O` [TPVVNPPFLQQT] was run?
A: ≥ 382 µM

Q: Which MIC (Bacillus subtilis 168 HT) does the source give for `CC[C@H](C)[C@H](NC(=O)[C@H](CCCCN)NC(=O)[C@H](CCCCN)NC(=O)[C@H](CC(C)C)NC(=O)[C@H](Cc1cnc[nH]1)NC(=O)[C@H](CCCCN)NC(=O)[C@H](CCCCN)NC(=O)[C@H](CC(C)C)NC(=O)[C@@H](N)CCCN=C(N)N)C(=O)N[C@@H](CCCCN)C(=O)O` [RLKKHLKKIK] here?
A: ≥ 99.1 µM

Q: And the MIC (Escherichia coli MG1655)?
A: ≥ 99.1 µM

Q: Which results are given for `CC[C@H](C)[C@H](N)C(=O)N[C@@H](CC(N)=O)C(=O)N[C@H](C(=O)N[C@H](C(=O)N[C@@H](CC(N)=O)C(=O)N[C@@H](C)C(=O)N1CCC[C@H]1C(=O)N[C@@H](CC(C)C)C(=O)N[C@@H](CCC(N)=O)C(=O)NCC(=O)N[C@@H](Cc1ccccc1)C(=O)N[C@@H](CCCCN)C(=O)N[C@H](C(=O)N[C@@H](C)C(=O)O)[C@@H](C)CC)[C@@H](C)CC)[C@@H](C)CC` [INIINAPLQGFKIA]?
A: MIC [20]: 10.6 µM (≈ 16 µg/mL); MIC (Bacillus subtilis 168 HT): 21.2 µM (≈ 32 µg/mL)

Q: Which MIC [21] does the source give for `CC[C@H](C)[C@H](NC(=O)[C@H](CC(C)C)NC(=O)CNC(=O)[C@H](CCCCN)NC(=O)[C@H](CC(C)C)NC(=O)[C@H](CC(N)=O)NC(=O)[C@@H](N)CC(C)C)C(=O)N[C@@H](CCCCN)C(=O)N[C@@H](CCCCN)C(=O)N[C@H](C(=O)N[C@@H](C)C(=O)N[C@@H](CO)C(=O)N[C@@H](CC(C)C)C(=O)N[C@@H](CC(C)C)C(=O)N[C@@H](CC(N)=O)C(=O)O)C(C)C` [LNLKGLIKKVASLLN] here?
A: 7.5 µM (≈ 12.2 µg/mL)

Q: And the MIC (Proteus mirabilis)?
A: ≥ 60 µM

Q: What about the MIC [22] of the same molecule?
A: 30 µM (≈ 48.7 µg/mL)

Q: What about the MIC [23] of the same molecule?
A: 15 µM (≈ 24.4 µg/mL)

Q: What about the MIC [4] of the same molecule?
A: 30 µM (≈ 48.7 µg/mL)

Q: What about the MIC [24] of the same molecule?
A: 15 µM (≈ 24.4 µg/mL)

Q: And the MIC (Streptococcus pyogenes)?
A: 15 µM (≈ 24.4 µg/mL)

Q: And the MIC [25]?
A: 7.5 µM (≈ 12.2 µg/mL)

Q: What about the MIC [26] of the same molecule?
A: 60 µM (≈ 97.4 µg/mL)

Q: And the MIC [7]?
A: 30 µM (≈ 48.7 µg/mL)

Q: With `CC[C@H](C)[C@H](NC(=O)[C@H](CCCN=C(N)N)NC(=O)[C@H](CCCN=C(N)N)NC(=O)[C@H](CCCN=C(N)N)NC(=O)[C@H](Cc1c[nH]c2ccccc12)NC(=O)[C@H](Cc1c[nH]c2ccccc12)NC(=O)[C@@H](N)Cc1c[nH]c2ccccc12)C(=O)N[C@@H](Cc1c[nH]c2ccccc12)C(N)=O` [WWWRRRIW] as the molecule, how does the MIC [4] read?
A: 25 µM (≈ 33.6 µg/mL)

Q: And the MIC [27]?
A: 35.4 µM (≈ 47.5 µg/mL)

Q: What about the MIC [18] of the same molecule?
A: 12.5 µM (≈ 16.8 µg/mL)

Q: What about the MIC [14] of the same molecule?
A: 25 µM (≈ 33.6 µg/mL)

Q: What about the MIC [28] of the same molecule?
A: 12.5 µM (≈ 16.8 µg/mL)

Q: With `CC[C@H](C)[C@H](NC(=O)CNC(=O)CNC(=O)[C@H](C)NC(=O)[C@@H](NC(=O)[C@H](CCCCN)NC(=O)[C@@H]1CCCN1C(=O)[C@@H](NC(=O)[C@H](CC(C)C)NC(=O)[C@H](CO)NC(=O)[C@H](CC(C)C)NC(=O)[C@@H](N)Cc1ccccc1)[C@@H](C)CC)[C@@H](C)CC)C(=O)N[C@@H](C)C(=O)N[C@@H](CO)C(=O)N[C@@H](CC(C)C)C(=O)N[C@H](C(=O)N[C@@H](CCCCN)C(=O)N[C@@H](CC(N)=O)C(=O)N[C@@H](CC(C)C)C(N)=O)C(C)C` [FLSLIPKIAGGIASLVKNL] as the molecule, how does the MIC [4] read?
A: 25 µM (≈ 48.8 µg/mL)

Q: What about the MIC [5] of the same molecule?
A: ≥ 50 µM

Q: What about the MIC [3] of the same molecule?
A: 6.25 µM (≈ 12.2 µg/mL)
